Results reported in patent US9486422B2, “Small molecule inhibitors of Mcl-1 and the uses of thereof” (THE REGENTS OF THE UNIVERSITY OF MICHIGAN, priority 2011, dated 2016).

Experiments:
Mcl-1 [1] = target: T1, Mcl-1 (Homo sapiens, UniProt Q07820); settings: cited from earlier work
Target sequence in this assay (Q07820 whole entry): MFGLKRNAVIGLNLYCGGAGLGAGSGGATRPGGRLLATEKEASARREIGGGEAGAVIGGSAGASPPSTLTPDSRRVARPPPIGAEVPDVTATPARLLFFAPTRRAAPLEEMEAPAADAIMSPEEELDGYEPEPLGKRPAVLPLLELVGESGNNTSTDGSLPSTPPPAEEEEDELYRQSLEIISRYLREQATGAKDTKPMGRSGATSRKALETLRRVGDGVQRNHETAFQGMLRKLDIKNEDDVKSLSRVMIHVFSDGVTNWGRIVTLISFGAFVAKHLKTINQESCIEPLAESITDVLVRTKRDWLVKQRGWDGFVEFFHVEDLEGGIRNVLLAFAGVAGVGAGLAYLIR

Bcl-xL = Bcl-xL (Homo sapiens, UniProt Q07817, DEL45-85); experiment: FP-based binding assay, Bcl-xL; settings: competitive FP, FAM-BID 2 nM, protein 50 nM; read-out: Bcl-xL Ki ± SD
Bcl-2 = target: T2, Bcl-2 (Homo sapiens, UniProt P10415); experiment: FP-based binding assay, Bcl-2; settings: competitive FP, Flu-BID 2 nM, protein 60 nM; read-out: Bcl-2 Ki ± SD
T2 construct: His-tagged proteins containing; fused on or other part: A 16-residue segment of the flexible loop of Bcl-xL (BCL2L1, Q07817; given as residues 35 to 50) set into the Bcl-2 loop region; His tag with TEV site from the pHis-TEV vector

Bcl-w = target: T3, Bcl-w (Homo sapiens, UniProt Q92843); experiment: FP-based binding assay, Bcl-w; settings: competitive FP, FAM-BID 2 nM, protein 40 nM; read-out: Bcl-w Ki ± SD
T3 sequence (Q92843 1-155): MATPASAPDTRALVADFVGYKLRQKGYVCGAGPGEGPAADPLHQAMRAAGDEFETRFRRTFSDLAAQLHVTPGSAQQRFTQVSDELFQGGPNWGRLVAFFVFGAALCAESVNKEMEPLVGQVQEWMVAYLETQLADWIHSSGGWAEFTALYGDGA

A1/Bfl-1 = target: T4, A1/Bfl-1 (Homo sapiens, UniProt Q16548); experiment: FP-based binding assay, A1/Bfl-1; settings: competitive FP, FAM-BID 1 nM, protein 4 nM; read-out: A1/Bfl-1 Ki ± SD
T4 sequence (Q16548 1-151): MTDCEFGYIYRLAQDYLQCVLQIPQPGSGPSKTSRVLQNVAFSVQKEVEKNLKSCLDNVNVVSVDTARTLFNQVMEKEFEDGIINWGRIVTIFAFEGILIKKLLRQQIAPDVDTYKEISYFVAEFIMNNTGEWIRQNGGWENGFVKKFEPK

Mcl-1 [2] = target: T1, Mcl-1; experiment: FP-based binding assay, Mcl-1; settings: competitive FP
Target sequence in this assay (Q07820 171-327): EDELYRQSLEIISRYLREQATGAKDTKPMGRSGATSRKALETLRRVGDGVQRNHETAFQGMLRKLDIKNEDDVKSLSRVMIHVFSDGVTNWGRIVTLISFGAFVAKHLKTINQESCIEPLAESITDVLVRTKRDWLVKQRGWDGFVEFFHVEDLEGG

[3] = target: T5, cellular Mcl-1 protein (2LMP cell lysate) (Homo sapiens, UniProt Q07820); experiment: Biotin-streptavidin pull-down with biotin-labeled Noxa BH3 peptide; type: binding
T5 construct: endogenous in cells; host or cells: 2LMP (subclone of MDA-MB-231) cell lysate
Description: Human breast cancer 2LMP cells, a subclone of the MDA-MB-231 cell line, were lysed in CHAPS buffer (10 mM HEPES (pH 7.4), 2.5 mM EDTA, 150 mM NaCl, 1.0% CHAP). Pre-cleared cell lysates were incubated with different concentrations of tested compounds, followed by incubation with biotinylated Noxa BH3 peptide (residues 18-43) and streptavidin-agarose beads to pull-down Mcl-1 protein bound to Noxa peptide. Beads were washed with CHAPS buffer, and Mcl-1 protein was eluted by boiling in SDS-PAGE sample buffer and analyzed by Western blotting using Mcl-1 antibody (Santa Cruz). DMSO alone was used as a control for nonspecific pull-down.

T2 sequence (P10415 with tags, fused parts or gaps with the stated changes): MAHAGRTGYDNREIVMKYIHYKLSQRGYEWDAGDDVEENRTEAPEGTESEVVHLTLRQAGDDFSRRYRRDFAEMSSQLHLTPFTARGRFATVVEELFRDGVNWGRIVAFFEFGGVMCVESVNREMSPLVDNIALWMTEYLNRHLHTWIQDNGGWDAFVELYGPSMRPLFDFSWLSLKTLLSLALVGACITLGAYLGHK
T5 sequence (Q07820 whole entry): as the sequence (Q07820 whole entry) above
Bcl-xL, sequence (Q07817 other isoform, or with tags, fused parts or gaps DEL45-85): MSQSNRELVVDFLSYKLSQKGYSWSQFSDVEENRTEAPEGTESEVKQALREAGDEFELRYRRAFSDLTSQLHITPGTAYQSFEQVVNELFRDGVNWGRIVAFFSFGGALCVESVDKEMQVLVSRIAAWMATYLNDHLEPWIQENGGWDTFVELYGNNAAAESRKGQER

Row | Ki (Bcl-xL) [µM] | Ki (Bcl-2) [µM] | IC50 (Mcl-1 [2]; Flu-BID 2 nM, Mcl-1 90 nM, read-out: Mcl-1 IC50 ± SD) [µM] | Ki (Mcl-1 [2]; Ki calculated from IC50, read-out: Mcl-1 Ki ± SD) [µM] | Structure (SMILES) | binding to Mcl-1, result in words (Mcl-1 [1]) | Ki (Bcl-w) [µM] | Ki (A1/Bfl-1) [µM] | disruption of BL-Noxa/cellular Mcl-1 interaction, result in words [3]
1 |  |  |  |  | CN(C)CC[C@H](CSc1ccccc1)Nc1ccc(S(=O)(=O)NC(=O)c2ccc(N3CCN(Cc4ccccc4-c4ccc(Cl)cc4)CC3)cc2)cc1[N+](=O)[O-] [ABT-737] | fails to bind to Mcl-1 |  |  | 
2 | > 130 | > 200 | > 800 | > 200 | O=C(O)CSc1cc(NS(=O)(=O)c2ccc(Br)cc2)ccc1O [Compound 22, 2-((5-(4-Bromophenylsulfonamido)-2-hydroxyphenyl)thio)acetic acid] |  | > 90 | > 140 | 
3 |  |  |  |  | O=C(O)CSc1cc(NS(=O)(=O)c2cccs2)c2ccccc2c1O [Compound 1, 2-((1-Hydroxy-4-(thiophene-2-sulfonamido)naphthalen-2-yl)thio)acetic acid] |  | 37.5 ± 7.96 | 6.14 ± 1 | effectively disrupted
